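In this assay, cells in 96-well plates receive the compound at five concentrations for 48 hours. Endpoints are linearly interpolated between the surrounding concentrations. The concentration for full growth arrest is given as TGI.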
Key:
Experiment in all cases: growth of human tumour cells (NCI), 48 h
[1] = system: MDA-MB-231 breast
[2] = system: COLO 205 colon
[3] = system: HCC-2998 colon
[4] = system: M14 melanoma
[5] = system: HT29 colon
[6] = system: NCI-H226 lung
[7] = system: RXF 393 renal
[8] = system: MDA-MB-435
[9] = system: U251 CNS
[10] = system: SN12C renal
[11] = system: HCT-15 colon
[12] = system: RPMI-8226 leukemia
[13] = system: UO-31 renal
[14] = system: HOP-92 NSCLC
[15] = system: K-562 leukemia
[16] = system: IGROV1 ovarian
[17] = system: SR leukemia
[18] = system: SNB-75 CNS
[19] = system: SK-MEL-2 melanoma
[20] = system: HS 578T breast
[21] = system: UACC-62 melanoma
[22] = system: SF-295 CNS
[23] = system: UACC-257 melanoma
[24] = system: PC-3 prostate
[25] = system: CCRF-CEM leukemia
[26] = system: OVCAR-4 ovarian
[27] = system: T-47D breast
[28] = system: SK-MEL-28 melanoma
[29] = system: MCF7 breast
[30] = system: NCI-H460 lung
[31] = system: TK-10 renal
[32] = system: NCI/ADR-RES ovarian
[33] = system: EKVX NSCLC
[34] = system: ACHN renal
[35] = system: HOP-62 NSCLC
[36] = system: OVCAR-5 ovarian
[37] = system: LOX IMVI melanoma
[38] = system: SK-OV-3 ovarian
[39] = system: SF-268 CNS
[40] = system: OVCAR-8 ovarian
[41] = system: NCI-H522 lung
[42] = system: OVCAR-3 ovarian
[43] = system: HL-60(TB) leukemia
[44] = system: HCT-116 colon
[45] = system: SNB-19 CNS
[46] = system: SW-620 colon
[47] = system: CAKI-1 renal
[48] = system: MDA-N
[49] = system: DU-145 prostate
[50] = system: NCI-H23 lung
[51] = system: 786-0 renal
[52] = system: SK-MEL-5 melanoma
[53] = system: KM12 colon
[54] = system: SF-539 CNS
[55] = system: A549 NSCLC
[56] = system: MOLT-4 leukemia
[57] = system: MALME-3M melanoma
[58] = system: A498 renal

SMILES: O=C1O/C(=C(/Br)c2ccc(Cl)c(Cl)c2)c2ccccc21
- TGI [1]: > 10 µM
- TGI [2]: > 10 µM
- TGI [3]: > 10 µM
- TGI [4]: > 10 µM
- TGI [5]: > 10 µM
- TGI [6]: > 10 µM
- TGI [7]: > 10 µM
- TGI [8]: > 10 µM
- TGI [9]: > 10 µM
- TGI [10]: > 10 µM
- TGI [11]: > 10 µM
- TGI [12]: > 10 µM
- TGI [13]: > 10 µM
- TGI [14]: > 10 µM
- TGI [15]: > 10 µM
- TGI [16]: > 10 µM
- TGI [17]: > 10 µM
- TGI [18]: > 10 µM
- TGI [19]: > 10 µM
- TGI [20]: > 10 µM
- TGI [21]: > 10 µM
- TGI [22]: > 10 µM
- TGI [23]: > 10 µM
- TGI [24]: > 10 µM
- TGI [25]: > 10 µM
- TGI [26]: > 10 µM
- TGI [27]: > 10 µM
- TGI [28]: > 10 µM
- TGI [29]: > 10 µM
- TGI [30]: > 10 µM
- TGI [31]: > 10 µM
- TGI [32]: > 10 µM
- TGI [33]: > 10 µM
- TGI [34]: > 10 µM
- TGI [35]: > 10 µM
- TGI [36]: > 10 µM
- TGI [37]: > 10 µM
- TGI [38]: > 10 µM
- TGI [39]: > 10 µM
- TGI [40]: > 10 µM
- TGI [41]: > 10 µM
- TGI [42]: > 10 µM
- TGI [43]: > 10 µM
- TGI [44]: > 10 µM
- TGI [45]: > 10 µM
- TGI [46]: > 10 µM
- TGI [47]: > 10 µM
- TGI [48]: > 10 µM
- TGI [49]: > 10 µM
- TGI [50]: > 10 µM
- TGI [51]: > 10 µM
- TGI [52]: > 10 µM
- TGI [53]: > 10 µM
- TGI [54]: > 10 µM
- TGI [55]: > 10 µM
- TGI [56]: > 10 µM

SMILES: CNC(=O)N1CN(c2ccccc2)C2(CCN(CCCC3(c4ccc(F)cc4)OCCO3)CC2)C1=O
- TGI [1]: > 100 µM
- TGI [2]: > 100 µM
- TGI [3]: > 100 µM
- TGI [4]: > 100 µM
- TGI [5]: > 100 µM
- TGI [6]: > 100 µM
- TGI [7]: > 100 µM
- TGI [8]: > 100 µM
- TGI [9]: > 100 µM
- TGI [10]: > 100 µM
- TGI [11]: > 100 µM
- TGI [12]: > 100 µM
- TGI [13]: > 100 µM
- TGI [57]: > 100 µM
- TGI [14]: > 100 µM
- TGI [15]: > 100 µM
- TGI [16]: > 100 µM
- TGI [17]: > 100 µM
- TGI [18]: > 100 µM
- TGI [19]: > 100 µM
- TGI [20]: > 100 µM
- TGI [21]: > 100 µM
- TGI [22]: > 100 µM
- TGI [24]: > 100 µM
- TGI [25]: > 100 µM
- TGI [26]: > 100 µM
- TGI [27]: > 100 µM
- TGI [28]: > 100 µM
- TGI [29]: > 100 µM
- TGI [30]: > 100 µM
- TGI [31]: > 100 µM
- TGI [32]: > 100 µM
- TGI [33]: > 100 µM
- TGI [34]: > 100 µM
- TGI [35]: > 100 µM
- TGI [58]: > 100 µM
- TGI [36]: > 100 µM
- TGI [37]: > 100 µM
- TGI [38]: > 100 µM
- TGI [39]: > 100 µM
- TGI [41]: > 100 µM
- TGI [42]: > 100 µM
- TGI [43]: > 100 µM
- TGI [44]: > 100 µM
- TGI [45]: > 100 µM
- TGI [46]: > 100 µM
- TGI [47]: > 100 µM
- TGI [48]: > 100 µM
- TGI [49]: > 100 µM
- TGI [50]: > 100 µM
- TGI [51]: > 100 µM
- TGI [52]: > 100 µM
- TGI [53]: > 100 µM
- TGI [54]: > 100 µM
- TGI [55]: > 100 µM
- TGI [56]: > 100 µM
